Converted amounts (≈) assume the structure as drawn.
Columns and labels:
[1] = anatomic pathology (histopathology of heart and kidney) in mice; type: in vivo; details: CD-1 mice, 20 mg/kg intravenously daily for 9 days, necropsy day 10, microscopic histopathology
Description: Samples of tissues from necropsied mice were formalin-fixed, paraffin-embedded, sectioned, stained with hematoxylin and eosin, and examined microscopically. Histopathologic findings were recorded. These findings were subjectively graded on a scale corresponding to slight, mild, moderate, marked and severe as compared to untreated controls.

[2] = system: Streptococcus sp.; test: in vitro antibacterial evaluation, MIC by broth dilution; type: cell-based; details: broth dilution, 18 hours at 35° C.
Outline: (§1)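 MIC, the lowest antibiotic concentration preventing growth, was read across 64-0.06 μg/mL with 5×10^5 CFU/mL inoculum. Method followed NCCLS M7-A2 broth dilution using Mueller-Hinton II; Gram-positive strains covered recent methicillin-, penicillin- and/or vancomycin-resistant clinical isolates.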

[3] = system: Staphylococcus sp.; test: as above; type: cell-based; details: broth dilution, 18 hours at 35° C.
Outline: as §1

[4] = system: Enterococcus sp.; test: as above; type: cell-based; details: broth dilution, 18 hours at 35° C.
Outline: as §1

[5] = system: Escherichia coli; test: as above; type: cell-based; details: 18 hours at 35° C.
[6] = system: Staphylococcus aureus-SMITH (GC 4543); test: acute lethal infection in mice; type: in vivo; details: acute lethal infection, female CD-1 mice, intraperitoneal challenge, intravenous 30 min. after infection, 7 day survival
Outline: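 Survival at 7 days, pooled from three independent tests, yields ED50 values. Treatment is intravenous, 30 min after ip infection of female CD-1 mice, using an inoculum lethal to untreated controls within 24-48 hr.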

CC(c1ccccc1)C1NC(=O)CNC(=O)C(CO)NC(=O)C(CC2CNC(=N)N2C2OC(CO)C(O)C(O)C2O)NC(=O)C(CC2CNC(=N)N2)NC(=O)C(Cc2ccc(OC3OC(CO)C(OC4OC5COC6(OC5C(O)C4O)C4CC5CC(C4)CC6C5)C(O)C3O)cc2)NC1=O (stereo not drawn) [Example 219, Cyclo[3-(2-iminoimidazolidin-4-yl)alanyl-3-(3-hexopyranosyl-2-iminoimidazolidin-4-yl)-alanylserylglycyl-β-methylphenylalanyl-O-[4-O-[4,6-O-(2-adamantylidene)hexopyranosyl]-hexopyranosyl]tyrosyl]]
Anatomical Pathology (Day 10), Heart [1]: 0
Anatomical Pathology (Day 10), Kidney [1]: +++
MIC Streptococcus agalactiae (GC 4564) [2]: 2 µg/mL (≈ 1.43 µM)
MIC Streptococcus pneumoniae (ATCC 6301) [2]: 0.5 µg/mL (≈ 0.358 µM)
MIC Streptococcus pneumoniae (GC 1894) [2]: 1 µg/mL (≈ 0.717 µM)
MIC Streptococcus pneumoniae (GC 4565) [2]: 2 µg/mL (≈ 1.43 µM)
MIC Streptococcus pyogenes (GC 4563) [2]: 2 µg/mL (≈ 1.43 µM)
MIC Streptococcus pneumoniae (ATCC 6301) ([2]; inoculum 5×10^5 CFU/mL, strain ATCC 6301): 0.5 µg/mL (≈ 0.358 µM)
MIC Streptococcus pneumoniae (GC 1894) ([2]; inoculum 5×10^5 CFU/mL, strain GC 1894): 1 µg/mL (≈ 0.717 µM)
MIC Streptococcus pyogenes (GC 4563) ([2]; inoculum 5×10^5 CFU/mL, strain GC 4563): 2 µg/mL (≈ 1.43 µM)
MIC Streptococcus agalactiae (GC 4564) ([2]; inoculum 5×10^5 CFU/mL, strain GC 4564): 2 µg/mL (≈ 1.43 µM)
MIC Streptococcus pneumoniae (GC 4565) ([2]; inoculum 5×10^5 CFU/mL, strain GC 4565): 2 µg/mL (≈ 1.43 µM)
MIC Staphylococcus aureus (ATCC 29213) ([3]; strain ATCC 29213): 4 µg/mL (≈ 2.87 µM)
MIC Staphylococcus aureus (GC 1131) ([3]; strain GC 1131): 4 µg/mL (≈ 2.87 µM)
MIC Staphylococcus aureus (GC 3051) ([3]; strain GC 3051): 2 µg/mL (≈ 1.43 µM)
MIC Staphylococcus aureus (GC 3053) ([3]; strain GC 3053): 2 µg/mL (≈ 1.43 µM)
MIC Staphylococcus aureus (GC 4541) ([3]; strain GC 4541): 2 µg/mL (≈ 1.43 µM)
MIC Staphylococcus aureus (GC 4542) ([3]; strain GC 4542): 2 µg/mL (≈ 1.43 µM)
MIC Staphylococcus aureus-SMITH (GC 4543) ([3]; strain GC 4543): 2 µg/mL (≈ 1.43 µM)
MIC Staphylococcus aureus (GC 4544) ([3]; strain GC 4544): 8 µg/mL (≈ 5.73 µM)
MIC Staphylococcus aureus (GC 4545) ([3]; strain GC 4545): 2 µg/mL (≈ 1.43 µM)
MIC Staphylococcus haemolyticus (GC 4546) ([3]; strain GC 4546): 2 µg/mL (≈ 1.43 µM)
MIC Coagulase Negative Staphylococcus (GC 4547) ([3]; strain GC 4547): 2 µg/mL (≈ 1.43 µM)
MIC Coagulase Negative Staphylococcus (GC 4548) ([3]; strain GC 4548): 2 µg/mL (≈ 1.43 µM)
MIC Coagulase Negative Staphylococcus (GC 4549) ([3]; strain GC 4549): 2 µg/mL (≈ 1.43 µM)
MIC Coagulase Negative Staphylococcus (GC 4551) ([3]; strain GC 4551): 4 µg/mL (≈ 2.87 µM)
MIC Coagulase Negative Staphylococcus (GC 6257) ([3]; strain GC 6257): 1 µg/mL (≈ 0.717 µM)
MIC Enterococcus avium (GC 4558) [4]: 4 µg/mL (≈ 2.87 µM)
MIC Enterococcus faecalis (ATCC 29212) [4]: 16 µg/mL (≈ 11.5 µM)
MIC Enterococcus faecalis (GC 2242) [4]: 8 µg/mL (≈ 5.73 µM)
MIC Enterococcus faecalis (GC 2691) [4]: 8 µg/mL (≈ 5.73 µM)
MIC Enterococcus faecalis (GC 3059) [4]: 16 µg/mL (≈ 11.5 µM)
MIC Enterococcus faecalis (GC 4552) [4]: 8 µg/mL (≈ 5.73 µM)
MIC Enterococcus faecalis (GC 4553) [4]: 8 µg/mL (≈ 5.73 µM)
MIC Enterococcus faecalis (GC 4554) [4]: 8 µg/mL (≈ 5.73 µM)
MIC Enterococcus faecalis (GC 6189) [4]: 8 µg/mL (≈ 5.73 µM)
MIC Enterococcus faecium (GC 2243) [4]: 8 µg/mL (≈ 5.73 µM)
MIC Enterococcus faecium (GC 4556) [4]: 8 µg/mL (≈ 5.73 µM)
MIC Enterococcus faecium (GC 4557) [4]: 4 µg/mL (≈ 2.87 µM)
MIC Enterococcus faecalis (ATCC 29212) ([4]; inoculum 5×10^5 CFU/mL, strain ATCC 29212): 16 µg/mL (≈ 11.5 µM)
MIC Enterococcus faecalis (GC 2242) ([4]; inoculum 5×10^5 CFU/mL, strain GC 2242): 8 µg/mL (≈ 5.73 µM)
MIC Enterococcus faecium (GC 2243) ([4]; inoculum 5×10^5 CFU/mL, strain GC 2243): 8 µg/mL (≈ 5.73 µM)
MIC Enterococcus faecalis (GC 2691) ([4]; inoculum 5×10^5 CFU/mL, strain GC 2691): 8 µg/mL (≈ 5.73 µM)
MIC Enterococcus faecalis (GC 3059) ([4]; inoculum 5×10^5 CFU/mL, strain GC 3059): 16 µg/mL (≈ 11.5 µM)
MIC Enterococcus faecalis (GC 4552) ([4]; inoculum 5×10^5 CFU/mL, strain GC 4552): 8 µg/mL (≈ 5.73 µM)
MIC Enterococcus faecalis (GC 4553) ([4]; inoculum 5×10^5 CFU/mL, strain GC 4553): 8 µg/mL (≈ 5.73 µM)
MIC Enterococcus faecalis (GC 4554) ([4]; inoculum 5×10^5 CFU/mL, strain GC 4554): 8 µg/mL (≈ 5.73 µM)
MIC Enterococcus faecium (GC 4556) ([4]; inoculum 5×10^5 CFU/mL, strain GC 4556): 8 µg/mL (≈ 5.73 µM)
MIC Enterococcus faecium (GC 4557) ([4]; inoculum 5×10^5 CFU/mL, strain GC 4557): 4 µg/mL (≈ 2.87 µM)
MIC Enterococcus avium (GC 4558) ([4]; inoculum 5×10^5 CFU/mL, strain GC 4558): 4 µg/mL (≈ 2.87 µM)
MIC Enterococcus faecalis (GC 6189) ([4]; inoculum 5×10^5 CFU/mL, strain GC 6189): 8 µg/mL (≈ 5.73 µM)
MIC Escherichia coli (ATCC 25922) [5]: 64 µg/mL (≈ 45.9 µM)
MIC Escherichia coli (GC 4559) [5]: 64 µg/mL (≈ 45.9 µM)
MIC Escherichia coli (GC 4560) [5]: 4 µg/mL (≈ 2.87 µM)
median effective dose (ED50), Staphylococcus aureus-SMITH (GC 4543) [6]: 0.5 mg/kg

Reference: patent publication US6914045B2, “Glycopeptide antibiotics” (Wyeth Holdings Corporation, priority 2001, dated 2005)
